Reference: US4207326A, “Antimicrobial quaternary pyrazole derivatives” (Cilag-Chemie A.G., priority 1979, dated 1980)
Converted amounts (≈) assume the structure as drawn. Where two headings read alike, the source gives them in different places.

How the values were obtained:
S. pyogenes = assay: Antibacterial activity: Minimum Inhibitory Concentration; format: cell-based, Streptococcus pyogenes NCTC 8198; settings: 24 hours
Method: (§1) The antimicrobial activity was determined by inoculation of the test microorganism into suitable growth media containing solutions of the compounds at concentrations of 100, 50, 10, 5, 1.0, 0.5 and 0.1 μg/ml. The reference antibiotics used were Gentamicin for the antibacterial tests and Amphotericin B for the antimycotic and antifungal tests. After incubation the antimicrobial activity was recorded as the Minimal Inhibitory Concentration (M.I.C.), i.e., the lowest concentration preventing macroscopically visible growth, for each test compound against each organism.
(§2) An initial solution of each formula (I) compound to be tested in sterile distilled water was prepared at a concentration of 1000 μg/ml. With appropriate dilutions using sterile distilled water, additional solutions were prepared at concentrations of 500, 100, 50, 10, 5 and 1 μg/ml.
(§3) They were cultured and maintained on Tryptone Soy Agar (Oxoid CM 131), with the addition of 10% horse blood for the S. pyogenes.
(§4) To prepare the organisms as inocula for the test, slopes of this medium were streaked with the organisms and incubated at 37° C. for 24 hours. 4.5 Ml volumes of Brian-Heart Infusion Broth (Oxoid CM 225) were then inoculated with a platinum loop from the agar slope cultures and incubated for 24 hours at 37° C. The final inocula were then prepared by adding 0.1 ml aliquots of the Brain-Heart Infusion Broth cultures to 100 ml volumes of sterile physiological saline.
(§5) (a) For the test on each of the bacterial strains and each of the test and reference compounds, a series of 8 tubes containing 4.5 ml volumes of Brain-Heart Infusion Broth (Oxoid CM 225) were prepared. To 7 of these were added 0.5 ml volumes of the final solutions of the test compouns, giving final concentrations in the broths of 100, 50, 10, 5, 1.0, 0.5 and 0.1 μg/ml. To the eighth tube in each series was added 0.5 ml of the solvent used and diluted as for the preparation of the 1000 μg/ml solution of the compound. This tube was used as the growth control. The tubes were inoculated with 0.02 ml aliquots of the inocula prepared in accordance with "(a) Bacteria" above, and incubated at 37° C. for 24 hours. The tubes were then examined for evidence of bacterial growth as shown by turbidity of the medium and the lowest concentration of the test compound which prevented bacterial growth was recorded as the Minimal Inhibitory Concentration. This test procedure was carried out on two separate days.

S. aureus = assay: as above; format: cell-based, Staphylococcus aureus ATCC 6538; settings: 24 hours
Method: as §1, §2, §3, §4, §5

E. coli = assay: as above; format: cell-based, Escherichia coli ATCC 8739; settings: 24 hours
Method: as §1, §2, §3, §4, §5

P. mirabilis = assay: as above; format: cell-based, Proteus mirabilis NCTC 8559; settings: P. mirabilis, 37° C., 24 hours
Method: as §1, §2, §3, §4, §5

P. aeruginosa = assay: as above; format: cell-based, Pseudomonas aeruginosa ATCC 9027; settings: P. aeruginosa, 37° C., 24 hours
Method: as §1, §2, §3, §4, §5

A. corymbifera = assay: Antifungal activity: Minimum Inhibitory Concentration; format: cell-based, Absidia corymbifera NCPF 2001
Method: as §1, §2
A. corymbifera NCPF 2001
(§6) The A. corymbifera, A. fumigatus, S. schenkii, T. rubrum, T. mentagrophytes, M. canis and P. verrucosa strains were all maintained on Sabouraud-Dextrose Agar (Oxoid CM 41) by incubating for 14 days at 27° C. To prepare the inocula 30 ml volumes of Sabouraud-Liquid medium (Oxoid CM 147) were inoculated from the agar cultures and incubated at 27° C. until heavy uniform growth resulted. The mycelial growth was then broken up by shaking with glass beads.
(§7) 1 Ml aliquots were removed from each of the cultures for the purpose of making viable counts and the cultures were then held at 4° C. The viable counts were made by preparing serial ten-fold dilutions of the cultures in sterile physiological saline and spreading on plates of Sabouraud-Dextrose Agar (Oxoid CM 41) which were then incubated at 27° C. for 14 days. When the viable counts had confirmed that each of the inocula contained approximately 10^6 colony forming units (C.F.U.) per ml the cultures were withdrawn from the refrigerator and used as the inocula for the tests.
(§8) (c) For the tests on each of the remaining seven strains and each of the test and reference compounds, a series of 8 tubes containing 4.5 ml volumes of Sabouraud-Liquid Medium (Oxoid CM 147) were prepared. To 7 of these were added 0.5 ml volumes of the final solutions of the test compounds, giving final concentrations in the broths of 100, 50, 10, 5, 1.0, 0.5 and 0.1 μg/ml. To the eighth tube in each series was added 0.5 ml of the solvent used and diluted as for the preparation of the 500 μg/ml solution of the compound. This tube was used as a growth control. The tubes were then inoculated with 0.1 ml aliquots of the inocula prepared as in "(b) Fungi" above. The tubes were then incubated at 27° C. with continuous shaking for a period of one week. The tubes were then examined for evidence of growth as shown by the presence of mycelial growth in the medium and the lowest concentration of the test compound which prevented fungal growth was recorded as the Minimal Inhibitory Concentration. This test procedure was carried out on two separate days.

P. verrucosa = assay: as above; format: cell-based, Phialophore verrucosa NCPF 1119
Method: as §1, §2, §6, §7, §8

C. neoformans = assay: Antimycotic activity: Minimum Inhibitory Concentration; format: cell-based, Cryptococcus neoformans NCPF 3184; settings: Cryptococcus neoformans, pH 5.5, 30° C., 72 hours
Method: as §1, §2
The C. neoformans was also maintained on Sabouraud-Dextrose Agar (Oxoid CM 41), but in this case cultures for the preparation of the inoculum were incubated on this agar at 30° C. for 48 hours. A 4.5 ml volume of citric acid-phosphate buffer pH 5.5 plus Yeast-Nitrogen Base (Difco-0392-15) was then inoculated from the agar culture and incubated at 30° C. for 48 hours. A 0.1 ml aliquot of this culture was then added to 100 ml sterile physiological saline to give the final inoculum.
(§9) (b) For the tests on each of the C. albicans, C. tropicalis and C. neoformans strains and each of the test and reference compounds, a series of 8 tubes containing 4.5 ml volumes of citric acid-phosphate buffer pH 5.5 plus Yeast-Nitrogen Base (Difco 0392-15) were prepared. To 7 of these were added 0.5 ml volumes of the final solutions of the test compounds, giving final concentrations in the broths of 100, 50, 10, 5, 1.0, 0.5 and 0.1 μg/ml. To the eighth tube in each series was added 0.5 ml of the solvent used and diluted as for the preparation of the 1000 μg/ml solution of the compound. This tube was used as the growth control. The tubes were then inoculated with 0.1 ml aliquots of the inocula prepared as in "(b) Fungi" above. The tubes inoculated with the C. albicans and C. tropicalis were inoculated at 37° C. for 72 hours and the tubes inoculated with the C. neoformans straim were incubated at 30° C. for 72 hours. […] The tubes were then examined for evidence of growth as shown by turbidity of the medium and the lowest concentration of the test compound which prevented fungal growth was recorded as the Minimal Inhibitory Concentration. This test procedure was carried out on two separate days.

T. mentagrophytes = assay: Antifungal activity: Minimum Inhibitory Concentration; format: cell-based, Trichophyton mentagrophytes NCPF 410
Method: as §1, §2
T. mentagrophytes NCPF 410
as §6, §7, §8

A. fumigatus = assay: as above; format: cell-based, Aspergillus fimigatus (A. fumigatus) NCPF 2140
Method: as §1, §2, §6, §7, §8

C. tropicalis = assay: Antimycotic activity: Minimum Inhibitory Concentration; format: cell-based, Candida tropicalis NCPF 3111; settings: Candida tropicalis, pH 5.5, 37° C., 72 hours
Method: as §1, §2
(§10) The two species, C. albicans and C. tropicalis, were maintained on Sabouraud-Dextrose Agar (Oxoid CM41) and cultures for the preparation of the inoculum were incubated on this agar at 37° C. for 48 hours. 4.5 Ml volumes of citric acid-phosphate buffer pH 5.5 plus Yeast-Nitrogen Base (Difco 0392-15) were then inoculated from the agar cultures and incubated at 37° C. for 48 hours. 0.1 Ml aliquots of these cultures were then added to 100 ml volumes of sterile physiological saline to give the final inocula.
as §9

C. albicans = assay: as above; format: cell-based, Candida albicans ATCC 10231
Method: as §1, §2, §10, §9

T. rubrum = assay: Antifungal activity: Minimum Inhibitory Concentration; format: cell-based, Trichophyton rubrum NCPF 197
Method: as §1, §2, §6, §7, §8

M. canis = assay: as above; format: cell-based, Microsporum canis NCPF 351
Method: as §1, §2, §6, §7, §8

S. schenkii = assay: as above; format: cell-based, Sporotrichon schenkii NCPF 3182
Method: as §1, §2, §6, §7, §8

Gentamicin [reference compound]
Minimum Inhibitory Concentration (S. pyogenes; Day 1, 37° C.): 0.5 µg/mL | Minimum Inhibitory Concentration (S. pyogenes; Day 2, 37° C.): 0.5 µg/mL | Minimum Inhibitory Concentration (S. aureus; Day 1, 37° C.): 0.5 µg/mL | Minimum Inhibitory Concentration (S. aureus; Day 2, 37° C.): 0.5 µg/mL | Minimum Inhibitory Concentration (E. coli; Day 1, 37° C.): 10 µg/mL | Minimum Inhibitory Concentration (E. coli; Day 2, 37° C.): 10 µg/mL | Minimum Inhibitory Concentration (P. mirabilis; Day 1): 5 µg/mL | Minimum Inhibitory Concentration (P. mirabilis; Day 2): 5 µg/mL | Minimum Inhibitory Concentration (P. aeruginosa; Day 1): 1 µg/mL | Minimum Inhibitory Concentration (P. aeruginosa; Day 2): 1 µg/mL

C[C@@H]1[C@H](O)[C@@H](C)/C=C/C=C/C=C/C=C/C=C/C=C/C=C/[C@H](O[C@@H]2O[C@H](C)[C@@H](O)[C@H](N)[C@@H]2O)C[C@@H]2O[C@](O)(C[C@@H](O)C[C@@H](O)[C@H](O)CC[C@@H](O)C[C@@H](O)CC(=O)O[C@H]1C)C[C@H](O)[C@H]2C(=O)O [Amphotericin B, reference compound]
Minimum Inhibitory Concentration (A. corymbifera; A. corymbifera, Day 2, 27° C., one week): 5 µg/mL | MIC (A. corymbifera; Lichtheimia corymbifera, read-out: Minimum Inhibitory Concentration): 5 µg/mL (≈ 5.41 µM) | Minimum Inhibitory Concentration (P. verrucosa; P. verrucosa, Day 2, 27° C., one week): 10 µg/mL | MIC (P. verrucosa; Phialophora verrucosa, read-out: Minimum Inhibitory Concentration): 10 µg/mL (≈ 10.8 µM) | MIC (C. neoformans; pH 5.5, read-out: Minimum Inhibitory Concentrations, C. neoformans, Day 1): 1 µg/mL (≈ 1.08 µM) | MIC (C. neoformans; pH 5.5, read-out: Minimum Inhibitory Concentrations, C. neoformans, Day 2): 0.5 µg/mL (≈ 0.541 µM) | Minimum Inhibitory Concentration (T. mentagrophytes; T. mentagrophytes, Day 1, 27° C., one week): 50 µg/mL | MIC (T. mentagrophytes; Trichophyton mentagrophytes, read-out: Minimum Inhibitory Concentration): 50 µg/mL (≈ 54.1 µM) | Minimum Inhibitory Concentration (A. fumigatus; A. fumigatus, Day 2, 27° C., one week): 5 µg/mL | MIC (A. fumigatus; Aspergillus fumigatus, read-out: Minimum Inhibitory Concentration): 5 µg/mL (≈ 5.41 µM) | MIC (C. tropicalis; pH 5.5, read-out: Minimum Inhibitory Concentrations, C. tropicalis, Day 1): 1 µg/mL (≈ 1.08 µM) | MIC (C. tropicalis; pH 5.5, read-out: Minimum Inhibitory Concentrations, C. tropicalis, Day 2): 1 µg/mL (≈ 1.08 µM) | Minimum Inhibitory Concentrations (C. albicans; C. albicans, Day 2, pH 5.5, 37° C., 72 hours): 1 µg/mL | MIC (C. albicans; Candida albicans, pH 5.5, read-out: Minimum Inhibitory Concentrations): 1 µg/mL (≈ 1.08 µM) | Minimum Inhibitory Concentration (T. rubrum; T. rubrum, Day 2, 27° C., one week): 50 µg/mL | MIC (T. rubrum; Trichophyton rubrum, read-out: Minimum Inhibitory Concentration): 50 µg/mL (≈ 54.1 µM) | Minimum Inhibitory Concentration (M. canis; M. canis, Day 2, 27° C., one week): 1 µg/mL | MIC (M. canis; Microsporum canis, read-out: Minimum Inhibitory Concentration): 1 µg/mL (≈ 1.08 µM) | Minimum Inhibitory Concentration (S. schenkii; S. schenkii, Day 2, 27° C., one week): 50 µg/mL | MIC (S. schenkii; read-out: Minimum Inhibitory Concentration): 50 µg/mL (≈ 54.1 µM)
